From patent US20230202989A1, “COMPOUNDS” (JANSSEN PHARMACEUTICA NV, priority 2020, published 2023)
pEC50, pIC50: −log10 of the molar value. Where two headings read alike, the source gives them in different places.

What was measured:
IL-1β = assay: PBMC assay: inhibition of IL-1β release after LPS stimulation (MSD); format: cell-based; details: human PBMCs, read-out: IL1β IC50
Description: Peripheral venous blood s collected from health individuals and human peripheral blood mononuclear cells (PBMCs) ere isolated from blood by Ficoll Histopaque (Sigma-Aldrich, A0561) density gradient centrifugation. After isolation, PBMCs were stored in liquid nitrogen for later use. Upon thawing, PBMC cell viability was determined in growth medium (RPMI media supplemented with 10% fetal bovine serum, 1% Pen-Strep and 1% L-glutamine). […] PBMCs were added at a density of 7.5×10^4 cells per well and incubated for 30 min in a 5% CO2 incubator at 37° C. LPS stimulation was performed by addition of 100 ng/ml LPS (final concentration, Invivogen, tlrl-smlps) for 6 hrs followed by collection of cellular supernatant and the analysis of IL-1β (μM) and TNF cytokines levels (μM) via MSD technology according to manufacturers' guidelines (MSD, K151A0H).
(§1) The IC50 values (for IL-1β) and EC50 values (TNF) were obtained on compounds of the invention/examples, and are depicted in the following table: […]

TNF = assay: PBMC assay: TNF cytokine levels after LPS stimulation (MSD); format: cell-based; details: human PBMCs, 100 ng/ml LPS for 6 hrs
Description: Peripheral venous blood s collected from health individuals and human peripheral blood mononuclear cells (PBMCs) ere isolated from blood by Ficoll Histopaque (Sigma-Aldrich, A0561) density gradient centrifugation. After isolation, PBMCs were stored in liquid nitrogen for later use. Upon thawing, PBMC cell viability was determined in growth medium (RPMI media supplemented with 10% fetal bovine serum, 1% Pen-Strep and 1% L-glutamine). Compounds were spotted in a 1:3 serial dilution in DMSO and diluted to the final concentration in 30 μl medium in 96 well plates (Falcon, 353072). PBMCs were added at a density of 7.5×10^4 cells per well and incubated for 30 min in a 5% CO2 incubator at 37° C. LPS stimulation was performed by addition of 100 ng/ml LPS (final concentration, Invivogen, tlrl-smlps) for 6 hrs followed by collection of cellular supernatant and the analysis of IL-1β (μM) and TNF cytokines levels (μM) via MSD technology according to manufacturers' guidelines (MSD, K151A0H).
as §1

[1] = Homo sapiens, PBMC, 6 h, 100 ng/ml LPS for 6 hrs, MSD, 96 well plates
[2] = Homo sapiens, PBMC, LPS stimulation, 384 well plate

| SMILES | pIC50 (IL-1β; 100 ng/ml LPS for 6 hrs, MSD, 96 well plates) | pEC50 (TNF) | pIC50 (IL-1β; [1]) | pEC50 (TNF; Homo sapiens, PBMC, 6 h) | pIC50 (IL-1β; [2]) |
| --- | --- | --- | --- | --- | --- |
| CC(C)c1nn(CC(=O)N[C@@H]2C[C@H](O)CN(C)C2)c(=O)c2ccc(C(F)(F)F)cc12 (mixture of isomers) [Final Cpd X133] | 5.47 | < 4.70 | – | – | – |
| CC(C)c1nn(CC(=O)N[C@H]2COC[C@H](O)C2)c(=O)c2ccc(C(F)(F)F)cc12 (mixture of isomers) [Final Cpd X148] | – | – | 5.20 | < 4.70 | – |
| CC(C)c1nn(CC(=O)N[C@@H]2COC[C@H](O)C2)c(=O)c2ccc(C(F)(F)F)cc12 (mixture of isomers) [Final Cpd X157] | – | – | 5.01 | < 4.70 | – |
| CC[C@@H](C)c1nn(CC(=O)Nc2ccc3nncn3c2)c(=O)c2ccc(C(F)(F)F)cc12 (single isomer, unassigned) [Final Cpd X12] | – | – | 6.95 | < 4.70 | – |
| Cc1nnc2n1C[C@@H](NC(=O)Cn1nc(C(C)C)c3cc(C(F)(F)F)ccc3c1=O)CC2 (single isomer, unassigned) [Final Cpd X41] | – | – | 6.45 | < 4.70 | – |
| CC[C@H](C)c1nn(CC(=O)Nc2ccc3nncn3c2)c(=O)c2ccc(C(F)(F)F)cc12 (single isomer, unassigned) [Final Cpd X43] | – | – | 6.43 | < 4.70 | – |
| CC(C)c1nn(CC(=O)N[C@H]2CC[C@H]2O)c(=O)c2ccc(C(F)(F)F)cc12 (single isomer, unassigned) [Final Cpd X124] | – | – | 5.56 | < 4.70 | – |
| CCN1CCC[C@H](NC(=O)Cn2nc(C(C)C)c3cc(C(F)(F)F)ccc3c2=O)C1=O (single isomer, unassigned) [Final Cpd X129] | – | – | 5.51 | < 4.70 | – |
| CC(C)c1nn(CC(=O)N[C@@H]2C[C@H](O)CN(C)C2)c(=O)c2ccc(C(F)(F)F)cc12 (single isomer, unassigned) [Final Cpd X130] | – | – | 5.51 | < 4.70 | – |
| CC(=O)N1C[C@H](O)C[C@@H](NC(=O)Cn2nc(C(C)C)c3cc(C(F)(F)F)ccc3c2=O)C1 (single isomer, unassigned) [Final Cpd X138] | – | – | 5.40 | < 4.70 | – |
| CCN1CC[C@@H](NC(=O)Cn2nc(C(C)C)c3cc(C(F)(F)F)ccc3c2=O)[C@@H](O)C1 (single isomer, unassigned) [Final Cpd X139] | – | – | 5.37 | < 4.70 | – |
| CCN1CC[C@@H](NC(=O)Cn2nc(C(C)C)c3cc(C(F)(F)F)ccc3c2=O)[C@H](O)C1 (single isomer, unassigned) [Final Cpd X140] | – | – | 5.34 | < 4.70 | – |
| CCN1CC[C@H](NC(=O)Cn2nc(C(C)C)c3cc(C(F)(F)F)ccc3c2=O)[C@H](O)C1 (single isomer, unassigned) [Final Cpd X147] | – | – | 5.23 | < 4.70 | – |
| CC(C)c1nn(CC(=O)N[C@@H]2CC[C@H]2O)c(=O)c2ccc(C(F)(F)F)cc12 (single isomer, unassigned) [Final Cpd X149] | – | – | 5.19 | < 4.70 | – |
| CC(=O)N1C[C@H](O)C[C@H](NC(=O)Cn2nc(C(C)C)c3cc(C(F)(F)F)ccc3c2=O)C1 (single isomer, unassigned) [Final Cpd X150] | – | – | 5.13 | < 4.70 | – |
| CCN1C[C@@H](F)C[C@H](NC(=O)Cn2nc(C(C)C)c3cc(C(F)(F)F)ccc3c2=O)C1 (single isomer, unassigned) [Final Cpd X153] | – | – | 5.12 | < 4.70 | – |
| CC(=O)N1C[C@@H](O)C[C@H](NC(=O)Cn2nc(C(C)C)c3cc(C(F)(F)F)ccc3c2=O)C1 (single isomer, unassigned) [Final Cpd X159] | – | – | 4.99 | < 4.70 | – |
| Cc1nnc2n1C[C@H](NC(=O)Cn1nc(C(C)C)c3cc(C(F)(F)F)ccc3c1=O)CC2 (single isomer, unassigned) [Final Cpd X163] | – | – | 4.82 | < 4.70 | – |
| CC(=O)N1C[C@@H](O)C[C@@H](NC(=O)Cn2nc(C(C)C)c3cc(C(F)(F)F)ccc3c2=O)C1 (single isomer, unassigned) [Final Cpd X164] | – | – | 4.81 | < 4.70 | – |
| CCN1CCC[C@@H](NC(=O)Cn2nc(C(C)C)c3cc(C(F)(F)F)ccc3c2=O)C1=O (single isomer, unassigned) [Final Cpd X166] | – | – | 4.76 | < 4.70 | – |

| SMILES | pIC50 (IL-1β; 100 ng/ml LPS for 6 hrs, MSD, 96 well plates) | pEC50 (TNF) | pIC50 (IL-1β; [1]) | pEC50 (TNF; Homo sapiens, PBMC, 6 h) | pIC50 (IL-1β; [2]) |
| --- | --- | --- | --- | --- | --- |
| CCN1CC[C@H](NC(=O)Cn2nc(C(C)C)c3cc(C(F)(F)F)ccc3c2=O)[C@@H](O)C1 (single isomer, unassigned) [Final Cpd X172] | – | – | < 4.70 | < 4.70 | – |
| CCN1CCC[C@H](NC(=O)Cn2nc(C(C)C)c3cc(Br)ccc3c2=O)C1 (stereo in doubt) [X-1032] | – | – | 7.51 | < 4.70 | – |
| CCN1CC[C@H](O)[C@H](NC(=O)Cn2nc(C(C)C)c3cc(Br)ccc3c2=O)C1 (stereo in doubt) [X-1083] | – | – | 7.74 | < 4.70 | – |
| CCc1nn(CC(=O)Nc2ccc3nncn3c2)c(=O)c2ccc(Br)cc12 [Final Cpd 1] | – | – | 6.94 | < 4.70 | – |
| CCc1nn(CC(=O)Nc2ccncn2)c(=O)c2ccc(Br)cc12 [Final Cpd 2, 2-(6-bromo-4-ethyl-1-oxo-phthalazin-2-yl)-N-pyrimidin-4-yl-acetamide] | – | – | 6.72 | < 5.00 | – |
| CCc1nn(CC(=O)Nc2ccc3nncn3c2)c(=O)c2ccc(C3CC3)cc12 [Final Cpd 3] | – | – | 6.91 | 4.83 | – |
| CCc1nn(CC(=O)Nc2ccncn2)c(=O)c2ccc(C)cc12 [Final Cpd 4] | – | – | 5.54 | < 5.00 | – |
| CCc1nn(CC(=O)Nc2ccncn2)c(=O)c2ccc(C3CC3)cc12 [Final Cpd 5] | – | – | 6.38 | < 5.00 | – |
| CCc1nn(CC(=O)Nc2ccncn2)c(=O)c2ccc(C(C)C)cc12 [Final Cpd 6] | – | – | 6.35 | < 5.00 | – |
| CCc1ccc2c(=O)n(CC(=O)Nc3ccncn3)nc(CC)c2c1 [Final Cpd 7] | – | – | – | < 5.00 | 6.15 |
| CC(C)c1nn(CC(=O)Nc2ccc3nncn3c2)c(=O)c2ccc(C(F)(F)F)cc12 [Final Cpd 8] | – | – | 7.12 | 4.86 | – |
| CCc1nn(CC(=O)Nc2ccncn2)c(=O)c2ccc(C(F)(F)F)cc12 [Final Cpd 9] | – | – | 6.24 | < 5.00 | – |
| COc1ccc2c(=O)n(CC(=O)Nc3ccncn3)nc(C(C)C)c2c1 [Final Cpd 10, 2-(4-isopropyl-6-methoxy-1-oxo-phthalazin-2-yl)-N-pyrimidin-4-yl-acetamide] | – | – | 5.63 | < 5.00 | – |
| CCc1nn(CC(=O)Nc2ccncn2)c(=O)c2ccc(OC)cc12 [Final Cpd 11] | – | – | 5.91 | < 5.00 | – |
| CCc1nn(CC(=O)Nc2ccncn2)c(=O)c2ccccc12 [Final Cpd 12] | – | – | < 4.70 | < 4.70 | – |
| CCc1nn(CC(=O)Nc2cccnc2)c(=O)c2ccccc12 [Final Cpd 13] | – | – | < 4.70 | < 4.70 | – |
| CCc1nn(CC(=O)NC2CC2)c(=O)c2ccccc12 [Final Cpd 14] | – | – | < 4.70 | < 4.70 | – |
| CC(C)c1nn(CC(=O)Nc2ccncn2)c(=O)c2ccc(C(F)(F)F)cc12 [Final Cpd 15] | – | – | 6.75 | < 4.70 | – |
| CCc1nn(CC(=O)Nc2ccncn2)c(=O)c2ccc(C(F)F)cc12 [Final Cpd 16] | – | – | – | < 5.00 | 6.04 |
| CC(C)c1nn(CC(=O)Nc2ncc3nc[nH]c3n2)c(=O)c2ccc(C(F)(F)F)cc12 [Final Cpd X1, 2-(4-isopropyl-1-oxo-6-(trifluoromethyl)phthalazin-2(1H)-yl)-N-(9H-purin-2-yl)acetamide] | – | – | – | < 4.70 | – |
